Experimental data from US20080312160A1, “METHOD OF TREATING ENTERITIS, […], AND DIARRHEA FROM C. DIFFICILE WITH AN A2A ADENOSINE RECEPTOR AGONIST” (priority 2007, published 2008).
Peptide text beside a SMILES is read from it.

What was measured:
[1] = system: C. difficile toxin A-induced inflammation and secretion in rabbit ileal loops; assay type: in vivo, New Zealand white rabbits; conditions: rabbit, in vivo
Experimental: Materials and Methods: New Zealand white rabbits weighing about 2 kg are fasted overnight. Under anesthesia with ketamine (60-80 mg/kg) and xylazine (5-10 mg/kg) administered intramuscularly, a midline abdominal incision is performed to expose the small bowel. After the ileum is flushed, four-cm loops are ligated using double ties with a 1 cm interval between loops. Each of the control loops is injected intraluminally with 1 mL solution of PBS with either C. difficile toxin A (toxin A) (Techlab, Blacksburg, Va.) at 10 μg/mL. Loops from another set of rabbits are treated with the adenosine A2A agonists, JMR 193 (ATL 193) (10 nM, 100 nM, or 1 uM doses) or ATL 146e ([…], 100 nM, 1 uM doses) immediately before the enterotoxin is administered. In addition a rabbit is treated with A2A agonist, ATL 313 (100 nM), alone and another rabbit treated with ATL 313 with alanyl-glutamine (25 mM). After 5 hours of incubation, the ligated small intestinal loops are removed. The length of each ligated ileal segment is measured and intraluminal fluid was quantified. Volume to length ratio, V/L (mL/cm), per loop is calculated. Samples of intestinal stained with hematoxylin-eosin and graded from 0 (none) to 4 (worst) based on the degree of mucosal disruption, increase in cellularity and intensity of vascular congestion.

[2] = system: Toxin A-induced secretion in rabbit ileal loops; assay: Rabbit ileal loops, toxin A-induced secretion (Example 3); assay type: in vivo, New Zealand white rabbits
Source text: Rabbit Ileal Loops: The animal experiment protocol was approved by the Animal Care and Use Committee at the University of Virginia. Eight New Zealand white rabbits weighing between 2.5-3 kg were used for this experiment. Each rabbit was fasted overnight. On the day of the experiment, the rabbits were anesthetized intramuscularly using a ketamine and xylazine solution in a 2:1 ratio. An intravenous line was placed in the ear vein of each rabbit for administration of the adenosine analog, ATL 370 (Adenosine Therapeutics) or a phosphate buffered saline placebo (PBS). Once anesthetized, a midline abdominal incision was made and the ileum was exposed. A measured amount of ileum was injected with 5 mL of PBS to flush any remaining fecal material. After the ileum was flushed, 10 loops of 2.5-5 cm each were ligated using double ties, with 0.5-1 cm of space between each loop.
Once the bowel was exposed and ligated, each rabbit received a 250 μL IV injection of PBS (Toxin A and Toxin A/Alanyl glutamine groups) or 1.5 ug/250 μL of ATL 370 (Toxin A/Adenosine and Toxin A/Adenosine/Alanyl-glutamine groups). An additional dose of either PBS or ATL 370 was administered 2 hours after the first dose for a total of 2 doses. Each dose was followed by a 250-500 μL heparin saline injection to prevent the IV from clotting.
A total of 79 loops were studied, of which 15 loops from 8 animals served as controls. Each of the control loops were injected intraluminally with 1 mL of a sterile PBS solution. The remaining 64 loops were injected intraluminally with 20 μg/500 μL of Toxin A (TechLab) and combined with either 500 μL PBS (Toxin A and Toxin A/Adenosine groups) or 500 μL of a […], 30 mM, 10 mM, or 3 mM alanyl-glutamine solution (Toxin A/Alanyl-glutamine and Toxin A/Adenosine/Alanyl-glutamine groups). The ileal loops were replaced intraperitoneally and the abdomimal incision was sutured. Sedation continued throughout the procedure and were euthanized after 4 hours.
Measurement of intestinal secretion: After 4 hours of incubation, the animals were euthanized and the ligated loops were immediately removed. The length of each loop was measured and incised and the intraluminal secretion was quantified. The volume to length ratio (V:L) was measured as milliliters per centimeter per loop. The gross description of intestinal fluid (serous, serosanguinous, hemorrhagic or purulent) was documented.

[3] = system: Toxin A-induced secretion in rabbit ileal loops; assay: as above; assay type: in vivo, New Zealand white rabbits; remark: listed apart in the source
[4] = system: Clostridium difficile toxin A (TxA)-induced histological alterations; assay: Histological grading of ileal inflammation, murine ileal loops; assay type: in vivo, mice
Experimental: (§1) Mice were fasted overnight, but allowed access to water, and then anesthetized with ketamine and xylazine (60 and 5 mg/Kg intramuscularly, respectively). Through a midline laparotomy, one 4-cm ileal loop was ligated and injected with either 0.1 ml of PBS pH 7.4 (control) or buffer containing TxA (1-10 μg). The abdomen was closed, and the animals were allowed to regain consciousness. Three hours after administration of TxA, mice were sacrificed and the intestinal loops were removed. The loop length, weight, and fluid volume were recorded. A portion of the loop was frozen at −70° C. for measurement of myeloperoxidase (MPO) and ADA activities and TNF-α concentration. The remaining tissue was fixed in 10% formalin and embedded in paraffin, and sections were stained with hematoxylin and eosin for histological grading of ileal inflammation. Some mice were injected with ATL 313 ([…] final concentration) immediately followed by PBS or TxA (5 μg); another group was injected with ZM241385 (5 nM), the selective A2A AR antagonist, immediately followed by PBS or ATL 313 (5 nM)+TxA (5 μg) in the ileal loop. In another experiment, TxA (5 μg) was injected into the ileal loop, the abdomen was closed, and, 30 min later, the abdomen was reopened and ATL 313 (5 nM) administered.
The severity of inflammation was scored in coded slides by a pathologist on a scale of 1 (mild) to 3 (severe) for epithelial damage, edema, and neutrophil infiltration.

[5] = system: Clostridium difficile toxin A-induced TNF-α production; assay: Quantification of TNF-α by ELISA in ileal tissue; assay type: in vivo, mice; conditions: ZM241385 + ATL 313 + TxA
Experimental: as §1, with “In another experiment, TxA (5 μg) was injected into the ileal loop, the abdomen was closed, and, 30 min later, the abdomen was reopened and ATL 313 (5 nM) administered.” left out
Ileal tissue was harvested from animals in order to measure TNF-α concentration by enzyme-linked immunosorbent assay (ELISA). The results are expressed as pg/mL of TNF-α.

[6] = system: murine ileal loops injected with Clostridium difficile toxin A (TxA); assay: TxA-induced enteritis in ligated murine ileal loops: loop weight and secretion volume; assay type: in vivo, mice
Experimental: For this study, 174 male Swiss mice, 25-30 g body weight, from the animal colony of the Federal University of Ceara were used. The animals received water and food ad libitum.
as §1

[7] = ZM241385 5 nM + ATL 313 5 nM + TxA 5 μg

## CCNC(=O)C1OC(n2cnc3c(N)nc(C#CCC4CCC(C(=O)OC)CC4)nc32)C(O)C1O (stereo not drawn) [ATL 146e, 4-{3-[6-Amino-9-(5-ethylcarbamoyl-3,4-dihydroxy-tetrahydro-furan-2-yl)-9H-purin-2-yl]-prop-2-ynyl}-cyclohexanecarboxylic acid methyl ester]
[1]
  inflammation induced by toxin A (histology score 0 to 4): reduced
  toxin A-induced secretion (volume to length ratio): not consistently ameliorated

## Nc1nc(C#CCC2CCN(C(=O)Oc3ccc(Cl)cc3)CC2)nc2c1ncn2C1OC(C(=O)NC2CC2)C(O)C1O (stereo not drawn) [ATL 370, 4-{3-[6-Amino-9-(5-cyclopropylcarbamoyl-3,4-dihydroxy-tetrahydro-furan-2-yl)-9H-purin-2-yl]-prop-2-ynyl}-piperidine-1-carboxylic acid 4-chloro-phenyl ester]
[2]; ATL 370 IV 1.5 ug x 2 doses + intraluminal toxin A only, n=8, p=0.35 vs toxin A
  V:L ratio: 0.44 mL/cm
[2]; ATL 370 IV + toxin A + alanyl-glutamine 3 mM
  V:L ratio: 0.21 mL/cm
[2]; ATL 370 IV + toxin A + alanyl-glutamine 10 mM
  V:L ratio: 0.20 mL/cm
[2]; ATL 370 IV + toxin A + alanyl-glutamine 30 mM
  V:L ratio: 0.14 mL/cm
[2]; ATL 370 IV + toxin A + alanyl-glutamine, all doses (7/16)
  loops purulent: 44%
[2]; ATL 370 IV + toxin A + alanyl-glutamine, all doses (16 loops)
  number of hemorrhagic loops: one
[2]; ATL 370 IV + toxin A only (10/16)
  loops either hemorrhagic or purulent: 63%
[3]; ATL 370 IV + toxin A + alanyl-glutamine 100 mM, n=4, p<0.001 vs toxin A
  V:L ratio: 0.05 mL/cm

## CCNC(=O)C1OC(n2cnc3c(N)nc(C#CCC4CCC(COC(C)=O)CC4)nc32)C(O)C1O (stereo not drawn) [JMR 193, Acetic acid 4-{3-[6-amino-9-(5-ethylcarbamoyl-3,4-dihydroxy-tetrahydro-furan-2-yl)-9H-purin-2-yl]-prop-2-ynyl}-cyclohexylmethyl ester]
[1]
  inflammation induced by toxin A (histology score 0 to 4): reduced
  toxin A-induced secretion (volume to length ratio): not consistently ameliorated

## Nc1nc(NCCc2ccc(O)cc2)nc2nc(-c3ccco3)nn12 [ZM241385, 4-[2-(7-Amino-2-furan-2-yl-[1,2,4]triazolo[1,5-a][1,3,5]triazin-5-ylamino)-ethyl]-phenol, reference compound]
[4]; ZM241385 + ATL 313 + TxA, median, range
  median injury score: 2.5
[4]; compound alone, no TxA, median(range)
  median injury score: 0(0-0)
[5]
  TNF-α production in ileal tissue: blocked ATL313 action
[6]; [7]
  secretion volume/ileal loop length ratio: significantly reversed the protective effect of ATL 313
  weight/ileal loop length ratio: significantly reversed the protective effect of ATL 313
[6]; ZM241385 alone, no TxA, PBS=1.25±1.25
  secretion volume/ileal loop length: 0.0 ± 0.0 µL/cm
[6]; ZM241385 alone, no TxA, PBS=34.5±3.2
  weight/ileal loop length: 19.9 ± 0.9 mg/cm

## C[C@H](N)C(=O)N[C@@H](CCC(N)=O)C(=O)O [alanyl-glutamine] (H-Ala-Gln-OH)
[2]; toxin A mixed with alanyl-glutamine 3 mM, intraluminal, 4 hours
  V:L ratio: 0.96 mL/cm
[2]; toxin A mixed with alanyl-glutamine 10 mM, intraluminal, 4 hours
  V:L ratio: 0.84 mL/cm
[2]; toxin A mixed with alanyl-glutamine 30 mM, intraluminal, 4 hours
  V:L ratio: 0.67 mL/cm
[2]; toxin A/alanyl-glutamine loops (11/15)
  loops hemorrhagic, purulent, or a combination of the two: 73%
[3]; toxin A mixed with alanyl-glutamine 100 mM, intraluminal, 4 hours
  V:L ratio: 0.44 mL/cm
